Source: patent US6627227B2, “Use of saw palmetto to prevent atherosclerosis” (priority 2000, dated 2003)

Legend:
[1] = Second study: patient questionnaire, cardiac events in patients taking finasteride; format: in vivo; conditions: 4 events over 242 patient-years; control 3.5%/yr.
Description: Finasteride was being administered at a dosage of a single oral 5 mg tablet a day. This is the same tablet used in treatment of BPH as disclosed in U.S. Pat. No. 5,175,155 and such dosage applies in the present invention. However, use of a 2 mg or 10 mg oral tablet is contemplated. In the second study patients of the practice were given a questionnaire. Various patients had been treated with finasteride for varying lengths of time. Only those on the drug for at least one year were considered. The average time on finasteride was 3 years. The number of cardiac events occurring in the patients taking finasteride was only 4 events over 242 patient-years. (1.6%/yr.) In the control group 26 events occurred in the 3 years prior over 732 patient-years. (3.5%/yr.) The 45% decrease observed in cardiac events is believed to be significant. (90% Cl equal to 1.4% to 3.7%)

[2] = Retrospective chart review of cardiac events in prostate cancer patients on LHRH inhibitors vs controls; format: in vivo; conditions: treated patients vs controls
Description: The patients on either Leuprolide or Goserelin were treated with the recommended doses indicated for the treatment of prostatic carcinoma, at either one or three month intervals depending on the preparation used. Leuprolide was dosed at 7.5 mg monthly (single intramuscular injection) or at 22.5 mg at 3 month intervals (single intramuscular injection). Goserelin was dosed at 3.6 mg monthly or at a dose of 10.8 mg at 3 month intervals (subcutaneous injection). The various groups of office patients were evaluated by chart review. In groups 2 and 3 only those on drug for at least one year were considered. Cardiac event is defined either the history of a heart attack or occurrence of coronary artery bypass or angioplasty. In control groups only events occurring in the 3 years prior to the questionnaire are charted.

Compound | cardiac event rate [1] | heart attacks compared with controls [2]
CC(C)(C)NC(=O)[C@H]1CC[C@H]2[C@@H]3CC[C@H]4NC(=O)C=C[C@]4(C)[C@H]3CC[C@]12C [finasteride, 4-azaandrost-1-ene-17-carboxamide, N-(1,1-dimethylethyl)-3-oxo-(5a 17B)-] | 1.6 %/yr. | 
CC(=O)O.CCNC(=O)[C@@H]1CCCN1C(=O)[C@H](CCCNC(=N)N)NC(=O)[C@H](CC(C)C)NC(=O)[C@@H](CC(C)C)NC(=O)[C@H](Cc1ccc(O)cc1)NC(=O)[C@H](CO)NC(=O)[C@H](Cc1c[nH]c2ccccc12)NC(=O)[C@H](Cc1c[nH]cn1)NC(=O)[C@@H]1CCC(=O)N1 [Lupron, 5-oxo-L-prolyl-L-histidyl-L-tryptophyl-L-seryl-L-tyrosyl-D-leucyl-L-leucyl-L-arginyl-N-ethyl-L-prolinamide acetate salt] |  | fewer heart attacks than controls
CC(C)C[C@H](NC(=O)[C@@H](COC(C)(C)C)NC(=O)[C@H](Cc1ccc(O)cc1)NC(=O)[C@H](CO)NC(=O)[C@H](Cc1c[nH]c2ccccc12)NC(=O)[C@H](Cc1cnc[nH]1)NC(=O)[C@@H]1CCC(=O)N1)C(=O)N[C@@H](CCCNC(=N)N)C(=O)N1CCC[C@H]1C(=O)NNC(N)=O [Zoladex, pyro-Glu-His-Trp-Ser-Tyr-D-Ser(Bu^t)-Leu-Arg-Pro-Azgly-NH2 acetate] |  | fewer heart attacks than controls
